Laboratory results from patent US20240199572A1, “COMPOUNDS, COMPOSITIONS, AND METHODS FOR TREATING TYPE 2 DIABETES AND DEMENTIA” (THE BOARD OF TRUSTEES OF THE UNIVERSITY OF ILLINOIS, priority 2021, published 2024).

How the values were obtained:
[1] = test system: Nuclear hormone (NHR) receptors; assay: All β-gal nuclear hormone receptor (NHR) screens; assay type: cell-based
Protocol: Receptor Binding Assays. Nuclear hormone (NHR) assays were performed by DiscoverX (Fremont, CA) on their NHR-Scan platform of cell-based protein-protein interaction assays. This platform uses a […] reporter that activates upon interaction of full-length receptor protein with steroid coactivator receptor peptides. In agonist mode, activity of CL2-57 at 10 μM was compared to maximal activity of published positive control agonists; in antagonist mode, reduction in activity with 10 μM CL2-57 from that observed at […] of published agonists was quantified.

LXRβ = target: T1, LXRβ (Homo sapiens, UniProt P55055); assay: LanthaScreen TR-FRET coactivator assay LXRβ; assay type: biochemical
T1 construct: purchased Thermo Fisher Scientific
T1 sequence (P55055 212-460 limits assumed): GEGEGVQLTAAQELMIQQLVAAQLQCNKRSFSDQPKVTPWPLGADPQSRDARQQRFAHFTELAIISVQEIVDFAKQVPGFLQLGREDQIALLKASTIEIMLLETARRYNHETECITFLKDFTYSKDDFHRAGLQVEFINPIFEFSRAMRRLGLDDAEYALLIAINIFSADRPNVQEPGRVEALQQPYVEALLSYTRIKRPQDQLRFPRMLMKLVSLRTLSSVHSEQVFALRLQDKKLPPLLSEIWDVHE
Protocol: TR-FRET Receptor Binding Assays. LanthaScreen” TR-FRET coactivator assay kits for LXRβ (Thermo Fisher Scientific) and PPARγ (Thermo Fisher Scientific) were performed according to manufacturer instructions using low-binding black 384-well plates and Synergy Neo2 plate reader. […] Each compound dose was performed in quadruplicate on each plate, and each experiment was performed in triplicate.

PPARγ = target: T2, PPARγ (Homo sapiens, UniProt P37231); assay: LanthaScreen TR-FRET coactivator assay PPARγ (antagonism of pioglitazone); assay type: biochemical
T2 construct: purchased Thermo Fisher Scientific
T2 sequence (P37231 232-505 limits assumed): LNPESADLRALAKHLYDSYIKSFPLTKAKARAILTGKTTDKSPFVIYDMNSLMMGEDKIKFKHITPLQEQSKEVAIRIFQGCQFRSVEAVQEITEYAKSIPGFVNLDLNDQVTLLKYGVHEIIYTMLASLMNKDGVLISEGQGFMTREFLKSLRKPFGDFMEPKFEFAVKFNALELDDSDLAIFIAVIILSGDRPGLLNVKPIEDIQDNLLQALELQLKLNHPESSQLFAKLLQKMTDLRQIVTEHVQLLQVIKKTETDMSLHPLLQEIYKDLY
Protocol: TR-FRET Receptor Binding Assays. LanthaScreen” TR-FRET coactivator assay kits for LXRβ (Thermo Fisher Scientific) and PPARγ (Thermo Fisher Scientific) were performed according to manufacturer instructions using low-binding black 384-well plates and Synergy Neo2 plate reader. For the PPARγ assay, standardization was first performed with control agonist (pioglitazone), then run in two antagonist assays: dose-response of pioglitazone with or without a single concentration of CL2-57, and dose-response of CL2-57 cotreated with a single concentration (500 nM) of pioglitazone. Each compound dose was performed in quadruplicate on each plate, and each experiment was performed in triplicate.

ABCA1 mRNA = ABCA1 mRNA - HepG2 (qRT-PCR); assay type: cell-based, human; details: Homo sapiens; ABCA1 mRNA-HepG2 assay (Table 7)
Source text: qRT-PCR. For cell samples, treated cells were lysed with RLT plus lysis buffer (Qiagen). RNA was isolated with Qiagen RNEASY® Plus columns per manufacturer instructions, then reverse-transcribed to cDNA using […]® III Reverse Transcriptase (200 U/μL, Invitrogen) per supplier protocol. qPCR experiments were either performed with TAQMAN® gene expression master mix (Invitrogen) on a StepOne™ qPCR instrument or with […]® SYBR® Green SuperMix (Quanta Biosciences) on CFX Connect™ Real-Time PCR Detection System (BioRad), with fold-change quantified by ΔΔCt. For animal samples, 100 mg tissue was homogenized in 1 mL acid-guanidinium-phenol based reagent sold under the tradename TRIZOL® (Ambion), mixed vigorously in chloroform, and separated by centrifugation. Aqueous layer containing RNA was added to Qiagen RNEASY® Plus column; remaining stops were as described above for cell lysates.

ABCA1 [2] = assay: ABCA1 firefly reporter assay in CCF-001 cells; assay type: cell-based; details: ABCA1 firefly reporter assay in CCF-001 cells (Table 8)
5×FAD mice = 5×FAD mice treated with CL3-3; assay type: in vivo, mouse; details: female 5×FAD mice, 10 mg/kg PO daily, 10 days
Protocol: To evaluate preclinical efficacy, CL3-3 was studied in 5×FAD mice. […] Female 5×FAD mice (JAX) at 16 weeks of age were treated for 10 days with either CL3-3 (10 mg/kg PO gavage daily) or vehicle. Upon completion of treatment, mouse whole brain hemispheres were analyzed for mRNA expression levels of pro-inflammatory markers including CCL2, CCL3, CCL5 CXCL10, IL-6, COX2 and NOS2. Plasma from the same mice was analyzed.

ABCA1 [3] = assay: ABCA1-linked luciferase assay in HepG2 cells; assay type: cell-based; details: Homo sapiens; HepG2 liver cells; Example 2, compounds active in ABCA1-Luc assay; read-out: EC50 in HepG2 liver cells
Protocol: Luciferase. HepG2 cells (RRID:CVCL 0027) purchased from ATCC and used without further validation were stably transfected with pGreenFire1-LXRE-in-ABCA1 plasmid, which contains the ABCA1 promoter sequence linked to a luciferase response element, then selected over multiple generations with puromycin and frozen in liquid N2. For assays, transfected cells were plated 24 hours in medium (Gibco) containing charcoal-stripped serum (Gemini), followed by a 24-hour treatment. Cells were lysed with passive lysis buffer (Promega), frozen at −80° C. for 15 minutes, and shaken at room temperature for 2 hours before quantification with luciferase assay system (Promega) on a Synergy Neo2 plate reader.

E3/4FAD mice = assay: E3/4FAD (EFAD) mice treated with CL3-3; assay type: in vivo, mouse
Protocol: A longer-term study was conducted in EFAD mice, which express the same five human AD mutations as 5×FAD mice and have also undergone targeted replacement of the mouse Apoe gene with one of the human APOE alleles: ε2, ε3, or ε4. In this study, EFAD mice with heterozygous ε3/ε4 alleles (E3/4FAD) were treated from 4 months of age until 6 months of age with CL3-3 (100 mg/kg/day in hydrogel replacement of drinking water) or vehicle.
Multiple readouts of AD-related pathology were conducted with subsets of these mice. Brain regions were first analyzed via ELISA for levels of soluble, oligomeric Aβ (oAβ), which is hypothesized to be the toxic form of amyloid that underlies downstream pathology and clinical presentation associated with AD. In E3/4FAD mice, oAβ levels decreased in the hippocampus in male mice and in the cerebral cortex in female mice. Treatment with CL3-3 also was synaptoprotective in cerebral cortex regions, particularly in male mice. Expression of synaptic proteins drebrin and PSD95 were increased in male E3/4FAD mice treated with CL3-3, as determined by western blot analysis.
The remaining subset of brain hemispheres from the treated E3/4FAD mice were fixed and analyzed by staining with thioflavin S (Thio-S). Thio-S is a fluorescent dye that binds to abnormally folded protein aggregates (i.e., amyloid).

CD1 mice = assay: CD1 mice, three daily p.o. treatments, LXR agonist adverse effects; assay type: in vivo, mouse; details: 10 mg/kg p.o., three days
Source text: Neutrophil Counts. […] After final dose, blood samples were run on an Advia 120 analyzer (Bayer) for neutrophil counts.

SMILES	EC50 (ABCA1 mRNA) [µM]	EC50 (ABCA1 [2]) [µM]	further results
CCOc1ccc(N(C)S(=O)(=O)c2cc(Cl)sc2C(=O)Nc2cccc(C(=O)O)c2)cc1OCC [CL2-129, 3-(5-Chloro-3-(N-(3,4-diethoxyphenyl)-N-methylsulfamoyl)thiophene-2-carboxamido)benzoic acid]	–	–	Activity in all of the β-gal screens [1]: inactive; Activity in LXRβ TR-FRET binding assay (LXRβ): inactive; Activity in PPARγ TR-FRET binding assay (PPARγ): inactive
CCOc1ccc(N(C)S(=O)(=O)c2cc(Cl)sc2C(=O)Nc2cccc(C(=O)OCCOC)c2)cc1OCC [CL2-167, 2-Methoxyethyl 3-(5-chloro-3-(N-(3,4-diethoxyphenyl)-N-methylsulfamoyl)thiophene-2-carboxamido) benzoate]	5	2.19	–
CCOc1ccc(N(C)S(=O)(=O)c2cc(Cl)sc2C(=O)Nc2cccc(C(=O)OCCOCCOC)c2)cc1OCC [CL2-168, 2-(2-Methoxyethoxy) ethyl 3-(5-chloro-3-(N-(3,4-diethoxyphenyl)-N-methylsulfamoyl)thiophene-2-carboxamido) benzoate]	3.6	1.36	–
CCOC(=O)c1cccc(NC(=O)c2sc(Cl)cc2S(=O)(=O)N(C)c2ccc(N(C)C)cc2)c1 [CL2-181, Ethyl 3-(5-chloro-3-(N-(4-(dimethylamino)phenyl)-N-methylsulfamoyl)thiophene-2-carboxamido)benzoate]	5	4.99	–
CCOC(=O)c1cccc(NC(=O)c2sc(Cl)cc2S(=O)(=O)N(C)c2cnc(OCC)c(F)c2)c1 [CL2-184, Ethyl 3-(5-chloro-3-(N-(6-ethoxy-5-fluoropyridin-3-yl)-N-methylsulfamoyl)thiophene-2-carboxamido)benzoate]	4.5	4.95	–
CCOC(=O)c1cc(Cl)cc(NC(=O)c2sc(Cl)cc2S(=O)(=O)N(C)c2ccc(OCC)c(OCC)c2)c1 [CL2-187, Ethyl 3-chloro-5-(5-chloro-3-(N-(3,4-diethoxyphenyl)-N-methylsulfamoyl)thiophene-2-carboxamido) benzoate]	0.81	0.247	–
CCOC(=O)c1cc(N)cc(NC(=O)c2sc(Cl)cc2S(=O)(=O)N(C)c2ccc(OCC)c(OCC)c2)c1 [CL2-191, Ethyl 3-amino-5-(5-chloro-3-(N-(3,4-diethoxyphenyl)-N-methylsulfamoyl)thiophene-2-carboxamido)benzoate]	> 5	8.42	–
CCOC(=O)c1cc(Cl)cc(NC(=O)c2sc(Cl)cc2S(=O)(=O)N(C)c2ccc(OCC)c(OC)c2)c1 [CL3-3, Ethyl 3-chloro-5-(5-chloro-3-(N-(4-ethoxy-3-methoxyphenyl)-N-methylsulfamoyl)thiophene-2-carboxamido) benzoate]	0.3	0.099	Brain mRNA levels of inflammatory markers (CCL2, CCL3, CCL5, CXCL10, IL-6, COX2, NOS2) (5×FAD mice): reduced; Circulating TG levels (5×FAD mice): not significantly altered; EC50 (ABCA1 [3]): 0.3 µM; % area stained by Thio-S (E3/4FAD mice; all measured brain regions, males and females): decreased; Expression of synaptic proteins drebrin and PSD95 (E3/4FAD mice; male E3/4FAD mice, western blot): increased
CCOC(=O)c1cc(Cl)cc(NC(=O)c2sc(Cl)cc2S(=O)(=O)N(C)c2ccc(OC)c(OC)c2)c1 [CL3-9, Ethyl 3-chloro-5-(5-chloro-3-(N-(3,4-dimethoxyphenyl)-N-methylsulfamoyl)thiophene-2-carboxamido)benzoate]	1.2	0.53	–
CCOc1ccc(N(C)S(=O)(=O)c2cc(Cl)sc2C(=O)Nc2cc(Cl)cc(C(=O)OC)c2)cc1OC [CL3-10, Methyl 3-chloro-5-(5-chloro-3-(N-(4-ethoxy-3-methoxyphenyl)-N-methylsulfamoyl)thiophene-2-carboxamido)benzoate]	1.1	0.339	–
CCOc1ccc(N(C)S(=O)(=O)c2cc(Cl)sc2C(=O)Nc2cc(Cl)cc(C(=O)OCCOC)c2)cc1OC [CL3-11, 2-Methoxyethyl 3-chloro-5-(5-chloro-3-(N-(4-ethoxy-3-methoxyphenyl)-N-methylsulfamoyl)thiophene-2-carboxamido)benzoate]	0.42	0.066	–
CCOc1ccc(N(C)S(=O)(=O)c2cc(Cl)sc2C(=O)Nc2cc(Cl)cc(C(=O)OCCOCCOC)c2)cc1OC [CL3-12, 2-(2-Methoxyethoxy) ethyl 3-chloro-5-(5-chloro-3-(N-(4-ethoxy-3-methoxyphenyl)-N-methylsulfamoyl)thiophene-2-carboxamido)benzoate]	0.42	0.138	–
O=S(=O)(c1ccccc1)N(CC(F)(F)F)c1ccc(C(O)(C(F)(F)F)C(F)(F)F)cc1 [Compound T0901317, reference compound]	–	–	Circulating neutrophil levels (CD1 mice): reduced; Plasma TG (CD1 mice): increased
CCOC(=O)c1cc(F)cc(NC(=O)c2sc(Cl)cc2S(=O)(=O)N(C)c2ccc(OCC)c(OC)c2)c1 [GR1-053, Ethyl 3-(5-chloro-3-(N-(4-ethoxy-3-methoxyphenyl)-N-methylsulfamoyl)thiophene-2-carboxamido)-5-fluorobenzoate]	0.24	0.029	–
CCOc1ccc(N(C)S(=O)(=O)c2cc(Cl)sc2C(=O)Nc2cccc(C(=O)OC)c2)cc1 [KB7-123, Methyl 3-(5-chloro-3-(N-(4-ethoxyphenyl)-N-methylsulfamoyl)thiophene-2-carboxamido)benzoate]	3.3	1.49	–
